The target of experiment [1] is PI3Kγ (p110γ) Recombinant Human Protein (Homo sapiens (Human), UniProt P48736). The experiment is described as follows: PI3K-γ Scintillation Proximity Assay. The experiment is classed as biochemical. The following applies: read-out: PI3Kγ IC50. On the procedure: [γ-^33P]ATP (10 mCi/mL) and Wheat Germ Agglutinin (WGA) YSi SPA Scintillation Beads was purchased from Perkin-Elmer (Waltham, Mass.). […] PI3Kγ (p110γ) Recombinant Human Protein was purchased from Life technology (Grand Island, N.Y.). ATP, MgCl2, DTT, EDTA, MOPS and CHAPS were purchased from Sigma-Aldrich (St. Louis, Mo.).
The kinase reaction was conducted in polystyrene 384-well Greiner Bio-one white plate from Thermo Fisher Scientific in a final volume of 25 μL. Inhibitors were first diluted serially in DMSO and added to the plate wells before the addition of other reaction components. The final concentration of DMSO in the assay was 2%. The PI3Kγ assay was carried out at room temperature in 20 mM MOPS, pH 6.7, 10 mM MgCl2, 5 mM DTT and CHAPS 0.03%. Reactions were initiated by the addition of ATP, the final reaction mixture consisted of 20 μM PIP2, 2 μM ATP, 0.5 μCi [γ-^33P] […] The final concentration of SPA beads is 1.0 mg/mL. After the plate sealing, plates were shaken overnight at room temperature and centrifuged at 1500 rpm for 10 min, the radioactivity of the product was determined by scintillation counting on Topcount (Perkin-Elmer). IC50 determination was performed by fitting the curve of percent of the solvent control activity versus the log of the inhibitor concentration using the GraphPad Prism 6.0 software.
Background: SPA uses beads or plates that emit light when radiolabelled molecules are held near them.

For experiment [2], the target named is PI3Kδ (p110δ/p85α) Recombinant Human Protein (Homo sapiens (Human), UniProt O00329). As to the kind of experiment: PI3Kδ Scintillation Proximity Assay. The format is biochemical. The text has this:
Example C. PI3Kδ Scintillation Proximity Assay
[γ-^33P]ATP (10 mCi/mL) and Wheat Germ Agglutinin (WGA) YSi SPA Scintillation Beads was purchased from Perkin-Elmer (Waltham, Mass.). Lipid kinase substrate, D-myo-Phosphatidylinositol 4,5-bisphosphate (PtdIns(4,5)P2)D (+)-sn-1,2-di-O-octanoylglyceryl, 3-O-phospho linked (PIP2), CAS 204858-53-7, was purchased from Echelon Biosciences (Salt Lake City, Utah). PI3Kδ (p110δ/p85α) Recombinant Human Protein was purchased from Eurofins (St Charles, Mo.). ATP, MgCl2, DTT, EDTA, MOPS and CHAPS were purchased from Sigma-Aldrich (St. Louis, Mo.).
The kinase reaction was conducted in polystyrene 384-well Greiner Bio-one white plate from Thermo Fisher Scientific in a final volume of 25 μL. Inhibitors were first diluted serially in DMSO and added to the plate wells before the addition of other reaction components. The final concentration of DMSO in the assay was 2%. The PI3Kδ assay was carried out at room temperature in 20 mM MOPS, pH 6.7, 10 mM MgCl2, 5 mM DTT and CHAPS 0.03%. Reactions were initiated by the addition of ATP, the final reaction mixture consisted of 20 μM PIP2, 2 μM ATP, 0.5 μCi [γ-^33P] ATP, 3.4 nM PI3Kδ. Reactions were incubated for 120 min and terminated by the addition of 40 μL SPA beads suspended in quench buffer: 163 mM potassium phosphate pH 7.8, 20% glycerol, 25 mM EDTA. The final concentration of SPA beads is 1.0 mg/mL. After the plate sealing, plates were shaken overnight at room temperature and centrifuged at 1500 rpm for 10 min, the radioactivity of the product was determined by scintillation counting on Topcount (Perkin-Elmer). IC50 determination was performed by fitting the curve of percent of the solvent control activity versus the log of the inhibitor concentration using the GraphPad Prism 6.0 software.

Structures can show the parent of a compound that is named as a salt.

PI3Kδ (p110δ/p85α) Recombinant Human Protein, sequence (O00329 whole entry): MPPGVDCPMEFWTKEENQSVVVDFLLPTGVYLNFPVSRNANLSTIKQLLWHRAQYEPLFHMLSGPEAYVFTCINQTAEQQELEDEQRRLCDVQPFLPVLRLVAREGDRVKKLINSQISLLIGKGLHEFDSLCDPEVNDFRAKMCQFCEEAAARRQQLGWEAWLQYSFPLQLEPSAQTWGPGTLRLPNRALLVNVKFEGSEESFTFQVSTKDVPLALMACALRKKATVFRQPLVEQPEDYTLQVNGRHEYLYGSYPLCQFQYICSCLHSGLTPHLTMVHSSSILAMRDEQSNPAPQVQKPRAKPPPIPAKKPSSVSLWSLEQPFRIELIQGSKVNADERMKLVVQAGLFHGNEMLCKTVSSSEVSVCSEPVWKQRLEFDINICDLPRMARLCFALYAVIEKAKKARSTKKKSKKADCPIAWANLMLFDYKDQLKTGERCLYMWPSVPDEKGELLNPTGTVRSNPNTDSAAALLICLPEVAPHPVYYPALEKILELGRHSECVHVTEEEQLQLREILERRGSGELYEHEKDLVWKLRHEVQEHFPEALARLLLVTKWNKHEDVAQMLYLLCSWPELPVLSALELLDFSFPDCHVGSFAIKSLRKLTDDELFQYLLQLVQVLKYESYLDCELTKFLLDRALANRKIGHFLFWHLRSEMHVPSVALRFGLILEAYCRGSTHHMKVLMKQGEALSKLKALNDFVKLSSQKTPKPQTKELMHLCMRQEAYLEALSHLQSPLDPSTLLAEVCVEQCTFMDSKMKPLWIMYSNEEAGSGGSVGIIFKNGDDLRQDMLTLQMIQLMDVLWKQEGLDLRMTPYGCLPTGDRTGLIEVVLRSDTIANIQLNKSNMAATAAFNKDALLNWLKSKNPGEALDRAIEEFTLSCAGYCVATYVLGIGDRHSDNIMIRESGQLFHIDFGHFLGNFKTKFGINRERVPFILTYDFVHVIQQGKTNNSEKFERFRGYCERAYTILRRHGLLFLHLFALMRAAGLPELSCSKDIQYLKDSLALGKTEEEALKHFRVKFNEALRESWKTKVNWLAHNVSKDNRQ
PI3Kδ (p110δ/p85α) Recombinant Human Protein, sequence (P27986 whole entry partner): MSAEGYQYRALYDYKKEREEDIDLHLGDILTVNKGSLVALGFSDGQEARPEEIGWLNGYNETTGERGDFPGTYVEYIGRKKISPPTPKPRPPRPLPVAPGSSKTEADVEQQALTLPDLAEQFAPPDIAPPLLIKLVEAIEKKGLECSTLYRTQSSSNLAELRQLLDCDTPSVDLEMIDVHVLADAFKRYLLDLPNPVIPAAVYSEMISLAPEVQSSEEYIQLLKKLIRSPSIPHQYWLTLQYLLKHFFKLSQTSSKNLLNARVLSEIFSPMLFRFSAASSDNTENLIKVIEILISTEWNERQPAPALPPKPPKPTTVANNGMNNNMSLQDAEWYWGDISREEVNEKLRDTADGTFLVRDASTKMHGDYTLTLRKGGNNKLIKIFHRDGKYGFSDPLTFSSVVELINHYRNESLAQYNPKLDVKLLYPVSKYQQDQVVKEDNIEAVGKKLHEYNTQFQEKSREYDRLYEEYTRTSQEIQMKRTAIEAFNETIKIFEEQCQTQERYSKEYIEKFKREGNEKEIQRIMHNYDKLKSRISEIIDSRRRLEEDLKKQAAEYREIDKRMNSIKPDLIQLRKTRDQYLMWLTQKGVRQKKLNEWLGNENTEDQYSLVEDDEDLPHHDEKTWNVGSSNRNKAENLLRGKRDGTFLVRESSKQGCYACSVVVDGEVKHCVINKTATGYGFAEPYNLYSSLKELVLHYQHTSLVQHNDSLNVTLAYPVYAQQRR
PI3Kγ (p110γ) Recombinant Human Protein, sequence (P48736 whole entry): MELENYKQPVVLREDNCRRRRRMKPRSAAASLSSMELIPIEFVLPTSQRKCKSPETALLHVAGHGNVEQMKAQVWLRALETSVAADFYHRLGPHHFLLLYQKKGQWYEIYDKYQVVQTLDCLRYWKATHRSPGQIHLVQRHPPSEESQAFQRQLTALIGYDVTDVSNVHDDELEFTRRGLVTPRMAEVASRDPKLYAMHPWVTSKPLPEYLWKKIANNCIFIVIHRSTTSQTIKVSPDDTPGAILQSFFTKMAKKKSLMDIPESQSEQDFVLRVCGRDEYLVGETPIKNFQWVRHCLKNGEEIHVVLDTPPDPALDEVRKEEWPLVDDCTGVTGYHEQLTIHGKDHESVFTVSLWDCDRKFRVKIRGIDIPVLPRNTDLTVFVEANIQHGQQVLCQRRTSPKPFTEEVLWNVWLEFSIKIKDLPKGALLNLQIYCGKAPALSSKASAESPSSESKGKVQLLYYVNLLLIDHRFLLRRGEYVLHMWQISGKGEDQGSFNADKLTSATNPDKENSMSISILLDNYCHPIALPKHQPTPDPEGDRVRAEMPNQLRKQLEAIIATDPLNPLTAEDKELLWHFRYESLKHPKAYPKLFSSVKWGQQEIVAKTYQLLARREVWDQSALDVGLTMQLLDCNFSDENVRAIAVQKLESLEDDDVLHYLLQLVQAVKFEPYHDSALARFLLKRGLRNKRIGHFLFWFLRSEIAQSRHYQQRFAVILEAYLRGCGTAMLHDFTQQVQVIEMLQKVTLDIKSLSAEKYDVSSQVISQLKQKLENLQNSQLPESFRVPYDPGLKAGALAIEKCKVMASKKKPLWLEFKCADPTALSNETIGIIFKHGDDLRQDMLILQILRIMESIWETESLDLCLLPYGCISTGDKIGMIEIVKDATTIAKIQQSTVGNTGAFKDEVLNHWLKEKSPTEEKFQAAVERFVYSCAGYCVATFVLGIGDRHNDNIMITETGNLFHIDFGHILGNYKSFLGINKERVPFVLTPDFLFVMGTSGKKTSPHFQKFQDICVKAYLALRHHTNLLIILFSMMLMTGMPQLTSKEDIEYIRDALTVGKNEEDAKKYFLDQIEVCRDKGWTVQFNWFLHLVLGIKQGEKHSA

Turning to `Cc1ccc(S(C)(=O)=O)cc1-c1cnc2c(N)nc(C(=O)NCC3CCC(C(F)(F)F)CC3)cn12` (mixture of isomers) [Example 456, 8-amino-3-(2-methyl-5-(methylsulfonyl)phenyl)-N-((4-(trifluoromethyl)cyclohexyl)methyl)imidazo[1,2-a]pyrazine-6-carboxamide trifluoroacetate salt (1:1 cis/trans isomers)], the IC50 in experiment [1] and in experiment [2] was 0.1 to 0.5 µM in each case.

Regarding `Cc1ccc(S(C)(=O)=O)cc1-c1cnc2c(N)nc(C(=O)NC3CCCN(CCO)C3)cn12` (racemic) [Example 460, 8-Amino-N-(1-(2-hydroxyethyl)piperidin-3-yl)-3-(2-methyl-5-(methylsulfonyl)phenyl)imidazo[1,2-a]pyrazine-6-carboxamide trifluoroacetate salt (racemic)], the IC50 in experiment [1] is 0.5 to 2 µM; in experiment [2], greater than 2 µM.

Consider `Cc1ccc(S(=O)(=O)[C@@H]2CCC[C@H](O)C2)cc1-c1cnc2c(N)ncnn12` (relative stereo) [Example 501, cis-3-((3-(4-Aminoimidazo[2,1-f][1,2,4]triazin-7-yl)-4-methylphenyl)sulfonyl)cyclohexan-1-ol], for which the 50% inhibitory concentration (IC50) in experiment [1] is less than 0.1 µM; in experiment [2], 0.5 to 2 µM.

In the case of `Cc1ccc(S(=O)(=O)NCC2(C)COC2)cc1-c1cnc2c(N)cccn12` [Example 3, 3-(8-Aminoimidazo[1,2-a]pyridin-3-yl)-4-methyl-N-[(3-methyloxetan-3-yl)methyl]benzenesulfonamide trifluoroacetate], the IC50 in experiment [1] is 0.1 to 0.5 µM; in experiment [2], greater than 2 µM.

As for `CCS(=O)(=O)Nc1cc(-c2cnc3c(N)cc(Cl)cn23)c[nH]c1=O` [Example 6, N-[5-(8-Amino-6-chloroimidazo[1,2-a]pyridin-3-yl)-2-oxo-1,2-dihydropyridin-3-yl]ethanesulfonamide trifluoroacetate], the IC50 is 0.5 to 2 µM in experiment [1] and greater than 2 µM in experiment [2].

Regarding `CCOc1ncc(-c2cnc3c(N)cc(Cl)cn23)cc1NS(=O)(=O)CC` [Example 7, N-[5-(8-Amino-6-chloroimidazo[1,2-a]pyridin-3-yl)-2-ethoxypyridin-3-yl]ethanesulfonamide bis(trifluoroacetate)], the figures for the IC50 in experiment [1] and in experiment [2] were 0.1 to 0.5 µM and 0.5 to 2 µM, respectively.

On to `Cc1ccc(S(C)(=O)=O)cc1-c1cnc2c(N)nc(-c3ccccc3F)cn12` [Example 40, 6-(2-Fluorophenyl)-3-[2-methyl-5-(methylsulfonyl)phenyl]imidazo[1,2-a]pyrazin-8-amine trifluoroacetate], for which the IC50 in experiment [1] is less than 0.1 µM; in experiment [2], 0.1 to 0.5 µM.

In the case of `COc1ccc(-c2cnc3c(N)nccn23)cc1S(=O)(=O)N[C@H]1CC[C@H](O)CC1` [Example 43, 5-(8-Aminoimidazo[1,2-a]pyrazin-3-yl)-N-(trans-4-hydroxycyclohexyl)-2-methoxybenzenesulfonamide], the IC50 in experiment [1] is 0.1 to 0.5 µM; in experiment [2] it was less than 0.1 µM.

`Cc1cc(-c2cnc3c(N)nccn23)cc(S(=O)(=O)N[C@H]2CC[C@H](O)CC2)c1` [Example 44, 3-(8-Aminoimidazo[1,2-a]pyrazin-3-yl)-N-(trans-4-hydroxycyclohexyl)-5-methylbenzenesulfonamide]: the half-inhibitory concentration (IC50) in experiment [1] is 0.5 to 2 µM; in experiment [2], greater than 2 µM.

On to `Nc1nccn2c(-c3ccc(F)c(S(=O)(=O)N[C@H]4CC[C@H](O)CC4)c3)cnc12` [Example 45, 5-(8-Aminoimidazo[1,2-a]pyrazin-3-yl)-2-fluoro-N-(trans-4-hydroxycyclohexyl)benzenesulfonamide], for which the IC50 in experiment [1] is less than 0.1 µM; in experiment [2], 0.5 to 2 µM.

As for `Nc1nccn2c(-c3ccc(Cl)c(S(=O)(=O)N[C@H]4CC[C@H](O)CC4)c3)cnc12` [Example 46, 5-(8-Aminoimidazo[1,2-a]pyrazin-3-yl)-2-chloro-N-(trans-4-hydroxycyclohexyl)benzenesulfonamide], the values for the IC50 in experiment [1] and in experiment [2] were less than 0.1 µM and 0.1 to 0.5 µM, respectively.

`Cc1ccc(S(=O)(=O)N2CCC(O)CC2)cc1-c1cnc2c(N)ncnn12` [Example 66, 1-{[3-(4-Aminoimidazo[2,1-f][1,2,4]triazin-7-yl)-4-methylphenyl]sulfonyl}piperidin-4-ol]: the IC50 in experiment [1] was 0.1 to 0.5 µM; in experiment [2], greater than 2 µM.

In the case of `Cc1ccc(S(=O)(=O)NCC2CCOC2)cc1-c1cnc2c(N)ncnn12` (stereo not shown) [Example 67, 3-(4-Aminoimidazo[2,1-f][1,2,4]triazin-7-yl)-4-methyl-N-(tetrahydrofuran-3-ylmethyl)benzenesulfonamide], the IC50 in experiment [1] was 0.1 to 0.5 µM; in experiment [2] it was greater than 2 µM.

Regarding `Cc1ccc(S(=O)(=O)NC23CC(CO)(C2)C3)cc1-c1cnc2c(N)ncnn12` [Example 105, 3-(4-Aminoimidazo[1,2-f][1,2,4]triazin-7-yl)-N-(3-(hydroxymethyl)bicyclo[1,1,1]pentan-1-yl)-4-methylbenzenesulfonamide trifluoroacetate salt], the half-maximal inhibitory concentration (IC50) in experiment [1] was less than 0.1 µM; in experiment [2], 0.5 to 2 µM.

Turning to `Cc1ccc(S(=O)(=O)N2CCC(O)C3(CC3)C2)cc1-c1cnc2c(N)ncnn12` (stereo not shown) [Example 119, 5-{[3-(4-aminoimidazo[2,1-f][1,2,4]triazin-7-yl)-4-methylphenyl]sulfonyl}-5-azaspiro[2.5]octan-8-ol], the results for the IC50 in experiment [1] and in experiment [2] were 0.1 to 0.5 µM and greater than 2 µM, respectively.

As for `Cc1ccc(S(=O)(=O)N2C3CCC2CC(O)C3)cc1-c1cnc2c(N)ncnn12` (stereo not shown) [Example 120, 8-{[3-(4-aminoimidazo[2,1-f][1,2,4]triazin-7-yl)-4-methylphenyl]sulfonyl}-8-azabicyclo[3.2.1]octan-3-ol], the results for the IC50 in experiment [1] and in experiment [2] were less than 0.1 µM and 0.1 to 0.5 µM, respectively.

Take `Cc1ccc(S(=O)(=O)N2CC(N3CCOCC3)C2)cc1-c1cnc2c(N)ncnn12` [Example 146, 7-(2-methyl-5-((3-morpholinoazetidin-1-yl)sulfonyl)phenyl)imidazo[2,1-f][1,2,4]triazin-4-amine, 2TFA]: the IC50 in experiment [1] is less than 0.1 µM; in experiment [2], 0.1 to 0.5 µM.

As for `Cc1ccc(S(=O)(=O)N(C)C2CC2)cc1-c1cnc2c(N)ncnn12` [Example 148, 3-(4-aminoimidazo[2,1-f][1,2,4]triazin-7-yl)-N-cyclopropyl-N,4-dimethylbenzenesulfonamide], the IC50 in experiment [1] was 0.1 to 0.5 µM; in experiment [2], 0.5 to 2 µM.

With `Cc1ccc(S(=O)(=O)N2CCCCC23CC3)cc1-c1cnc2c(N)ncnn12` [Example 149, 7-(5-((4-azaspiro[2.5]octan-4-yl)sulfonyl)-2-methylphenyl)imidazo[2,1-f][1,2,4]triazin-4-amine], the IC50 in experiment [1] was less than 0.1 µM; in experiment [2] it was 0.1 to 0.5 µM.

Consider `Cc1ccc(S(=O)(=O)N2CC[C@@H](C#N)C2)cc1-c1cnc2c(N)ncnn12` [Example 150, (R)-1-((3-(4-aminoimidazo[2,1-f][1,2,4]triazin-7-yl)-4-methylphenyl)sulfonyl)pyrrolidine-3-carbonitrile], for which the figures for the IC50 in experiment [1] and in experiment [2] were less than 0.1 µM and 0.5 to 2 µM, respectively.

As for `CO[C@@H]1CN(S(=O)(=O)c2ccc(C)c(-c3cnc4c(N)ncnn34)c2)C[C@H]1F` [Example 151, 7-(5-(((3R,4R)-3-fluoro-4-methoxypyrrolidin-1-yl)sulfonyl)-2-methylphenyl)imidazo[2,1-f][1,2,4]triazin-4-amine], the results for the IC50 in experiment [1] and in experiment [2] were less than 0.1 µM and 0.1 to 0.5 µM, respectively.

In the case of `Cc1ccc(S(=O)(=O)N2CCC[C@@H]2CO)cc1-c1cnc2c(N)ncnn12` [Example 152], the results for the IC50 in experiment [1] and in experiment [2] were less than 0.1 µM and 0.5 to 2 µM, respectively.

On to `Cc1ccc(S(=O)(=O)N2CC(C3COC3)C2)cc1-c1cnc2c(N)ncnn12` [Example 153, 7-(2-methyl-5-((3-(oxetan-3-yl)azetidin-1-yl)sulfonyl)phenyl)imidazo[2,1-f][1,2,4]triazin-4-amine], for which the concentration for half-maximal inhibition (IC50) in experiment [1] was less than 0.1 µM; in experiment [2] it was 0.5 to 2 µM.

For orientation: IC50 means the concentration that inhibits the measured activity by half.

(Values after US10479795B2 (Incyte Corporation, priority 2016, dated 2019).)
